Measurements from patent US10844038B2, “1,2-dithiolane compounds useful in neuroprotection, autoimmune and cancer diseases and conditions” (SABILA BIOSCIENCES LLC, priority 2016, dated 2020).

How the values were obtained:
FYN [1] = biological target: T1, FYN (Homo sapiens (Human), UniProt P06241); test: Rabbit reticulocyte lysate assay (KinaseSeeker competition binding); settings: at 1 μM
HCK = HCK (Homo sapiens (Human), UniProt P08631); test: as above; settings: read-out: IC50 Activity Levels Against SRC Family Kinases: HCK
FYN [2] = biological target: T1, FYN; test: Radiometric 33PanQinase assay (FlashPlate-based Protein Kinase Assay); type: biochemical; settings: at app. ATP Km, read-out: IC50 Activity Levels Against FYN Kinase: FYN
Description: 5. Radiometric ^33PanQinase^R Assay:
This assay referred to as FlashPlate-based Protein Kinase Assay uses recombinant protein kinase and ATP concentration corresponding to the apparent ATP-Km of the respective kinase. Testing of inhibitors is done at app. ATP Km.

BRAF [3] = biological target: T2, BRAF (Homo sapiens (Human), UniProt P15056); test: KINOMEscan competition binding assay (Kd); settings: read-out: Kd Values Against MAPK Pathway Kinases: BRAF
Experimental: (§1) KINOMEscan™ is based on a competition binding assay that quantitatively measures the ability of a test compound of the invention to compete with an immobilized, active-site directed ligand. The Kinase assay is performed by combining three components: DNA-tagged kinase; immobilized ligand; and a test compound. The ability of the test compound to compete with the immobilized ligand is measured via quantitative PCR of the DNA tag.
(§2) For most assays, kinase-tagged T7 phage strains were prepared in an E. coli host derived from the BL21 strain. E. coli were grown to log-phase and infected with T7 phage and incubated with shaking at 32° C. until lysis. The lysates were centrifuged and filtered to remove cell debris. The remaining kinases were produced in HEK-293 cells and subsequently tagged with DNA for qPCR detection. Streptavidin-coated magnetic beads were treated with biotinylated small molecule ligands for 30 minutes at room temperature to generate affinity resins for kinase assays. The liganded beads were blocked with excess biotin and washed with blocking buffer (SeaBlock (Pierce), 1% BSA, 0.05% Tween 20, 1 mM DTT) to remove unbound ligand and to reduce nonspecific binding. […] All reactions were performed in polystyrene 96-well plates in a final volume of 0.135 ml. […] The kinase concentration in the eluates was measured by qPCR.

MEK6 = MEK6 (Homo sapiens (Human), UniProt P52564); test: KINOMEscan competition binding assay (Kd); settings: read-out: Kd Values Against MEK Kinases Isoforms: MEK6
Experimental: as §1, §2

MEK7 = MEK7 (Homo sapiens (Human), UniProt O14733); test: KINOMEscan competition binding assay (Kd); settings: read-out: Kd Values Against MEK Kinases Isoforms: MEK7
Experimental: as §1, §2

BRAF [4] = biological target: T2, BRAF; test: Radioisotope filter binding assay; type: biochemical; settings: read-out: IC50 Activity Levels Against MAPK Pathway Kinases: BRAF
Method in brief: (§3)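 Readout is 33P-labelled product captured on P81 ion-exchange filter after washing off unreacted phosphate. Reactions contained kinase, substrate, cofactors and test compound in pH 7.5 Hepes/MgCl2 buffer with 1% DMSO, run 2 h at room temperature after 20 min compound preincubation.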

HER4 = HER4 (Homo sapiens (Human), UniProt Q15303); test: Radioisotope filter binding assay; type: biochemical; settings: read-out: IC50 Activity Levels Against RTKs (c-Kit, RET, HER4) and AurA, CHK2 Kinases: HER4
Method in brief: as §3

KDR/VEGFR2 = KDR/VEGFR2 (Homo sapiens (Human), UniProt P35968); test: Radioisotope filter binding assay; type: biochemical; settings: read-out: IC50 Activity Levels Against MAPK Pathway Kinases: KDR/VEGFR2
Method in brief: as §3

RET = RET (Homo sapiens (Human), UniProt P07949); test: Radioisotope filter binding assay; type: biochemical; settings: read-out: IC50 Activity Levels Against RTKs (c-Kit, RET, HER4) and AurA, CHK2 Kinases: RET
Method in brief: as §3

c-KIT = c-KIT (Homo sapiens (Human), UniProt P10721); test: Radioisotope filter binding assay; type: biochemical; settings: read-out: IC50 Activity Levels Against RTKs (c-Kit, RET, HER4) and AurA, CHK2 Kinases: c-KIT
Method in brief: as §3

T1 sequence (P06241 whole entry): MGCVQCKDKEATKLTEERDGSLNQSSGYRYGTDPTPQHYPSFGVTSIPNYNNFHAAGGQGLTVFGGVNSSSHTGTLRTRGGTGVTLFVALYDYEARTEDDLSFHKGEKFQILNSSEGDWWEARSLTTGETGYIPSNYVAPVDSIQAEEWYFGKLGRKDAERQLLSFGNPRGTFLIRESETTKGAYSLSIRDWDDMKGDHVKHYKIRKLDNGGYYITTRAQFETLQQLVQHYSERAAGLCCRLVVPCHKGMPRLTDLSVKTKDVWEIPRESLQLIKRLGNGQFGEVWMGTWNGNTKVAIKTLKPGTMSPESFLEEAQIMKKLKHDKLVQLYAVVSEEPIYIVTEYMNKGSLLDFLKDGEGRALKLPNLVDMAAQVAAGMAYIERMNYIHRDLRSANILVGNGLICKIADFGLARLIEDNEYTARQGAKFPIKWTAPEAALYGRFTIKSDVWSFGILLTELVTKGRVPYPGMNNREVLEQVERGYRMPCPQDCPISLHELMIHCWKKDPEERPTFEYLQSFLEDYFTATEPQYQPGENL
T2 sequence (P15056 whole entry): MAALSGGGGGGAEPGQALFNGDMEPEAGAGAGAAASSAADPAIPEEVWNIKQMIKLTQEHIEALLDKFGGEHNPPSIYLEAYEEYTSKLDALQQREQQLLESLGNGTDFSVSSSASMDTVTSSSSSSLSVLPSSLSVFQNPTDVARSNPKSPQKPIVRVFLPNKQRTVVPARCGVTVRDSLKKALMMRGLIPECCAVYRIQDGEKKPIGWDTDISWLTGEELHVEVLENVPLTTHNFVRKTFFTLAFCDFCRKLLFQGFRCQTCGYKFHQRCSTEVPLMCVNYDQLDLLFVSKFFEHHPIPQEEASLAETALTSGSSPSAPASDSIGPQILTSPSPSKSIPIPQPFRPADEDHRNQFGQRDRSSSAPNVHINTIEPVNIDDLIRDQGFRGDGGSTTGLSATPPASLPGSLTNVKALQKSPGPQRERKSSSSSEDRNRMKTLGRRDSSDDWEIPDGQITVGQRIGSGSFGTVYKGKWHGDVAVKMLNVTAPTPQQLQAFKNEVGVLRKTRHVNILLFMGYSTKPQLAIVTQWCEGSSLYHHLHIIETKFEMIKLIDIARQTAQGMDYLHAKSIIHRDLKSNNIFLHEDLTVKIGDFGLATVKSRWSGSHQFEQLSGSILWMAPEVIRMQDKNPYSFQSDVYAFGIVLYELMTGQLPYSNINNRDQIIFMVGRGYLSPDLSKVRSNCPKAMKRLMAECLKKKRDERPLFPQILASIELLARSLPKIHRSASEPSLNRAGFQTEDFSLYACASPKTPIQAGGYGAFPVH
Chain of KDR/VEGFR2 (P35968 20-1356): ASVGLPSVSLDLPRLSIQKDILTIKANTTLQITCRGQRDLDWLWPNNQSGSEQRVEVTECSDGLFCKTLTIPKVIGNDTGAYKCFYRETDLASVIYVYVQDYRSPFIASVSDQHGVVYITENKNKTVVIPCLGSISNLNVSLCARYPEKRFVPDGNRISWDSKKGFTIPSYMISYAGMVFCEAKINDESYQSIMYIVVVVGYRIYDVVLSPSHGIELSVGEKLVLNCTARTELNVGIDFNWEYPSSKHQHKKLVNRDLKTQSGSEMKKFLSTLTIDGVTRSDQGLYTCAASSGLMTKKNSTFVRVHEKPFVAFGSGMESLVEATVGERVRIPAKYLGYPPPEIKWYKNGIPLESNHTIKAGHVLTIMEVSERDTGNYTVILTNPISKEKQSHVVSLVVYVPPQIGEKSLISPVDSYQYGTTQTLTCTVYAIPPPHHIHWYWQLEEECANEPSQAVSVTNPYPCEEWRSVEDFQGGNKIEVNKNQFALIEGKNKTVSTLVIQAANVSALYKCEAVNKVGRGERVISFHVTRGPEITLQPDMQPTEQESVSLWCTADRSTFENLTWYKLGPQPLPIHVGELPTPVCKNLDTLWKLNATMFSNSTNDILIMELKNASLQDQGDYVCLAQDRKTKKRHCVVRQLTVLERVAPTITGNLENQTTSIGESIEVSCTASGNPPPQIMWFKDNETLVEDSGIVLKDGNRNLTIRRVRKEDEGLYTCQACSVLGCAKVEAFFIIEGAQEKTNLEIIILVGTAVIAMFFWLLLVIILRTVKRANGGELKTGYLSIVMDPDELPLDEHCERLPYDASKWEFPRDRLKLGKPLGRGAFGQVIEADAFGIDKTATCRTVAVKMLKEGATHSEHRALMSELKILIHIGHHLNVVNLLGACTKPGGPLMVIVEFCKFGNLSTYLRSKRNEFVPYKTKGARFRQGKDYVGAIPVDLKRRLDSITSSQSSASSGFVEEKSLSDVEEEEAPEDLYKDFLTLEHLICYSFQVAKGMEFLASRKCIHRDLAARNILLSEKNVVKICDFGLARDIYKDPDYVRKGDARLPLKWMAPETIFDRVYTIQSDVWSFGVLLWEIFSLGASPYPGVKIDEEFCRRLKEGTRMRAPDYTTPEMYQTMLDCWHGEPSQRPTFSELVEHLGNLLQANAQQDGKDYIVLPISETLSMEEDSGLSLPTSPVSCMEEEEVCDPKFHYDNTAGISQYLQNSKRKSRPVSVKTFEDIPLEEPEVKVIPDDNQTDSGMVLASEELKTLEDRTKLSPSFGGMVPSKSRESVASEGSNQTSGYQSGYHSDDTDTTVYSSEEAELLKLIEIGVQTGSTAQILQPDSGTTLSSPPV
Chain of c-KIT (P10721 26-976): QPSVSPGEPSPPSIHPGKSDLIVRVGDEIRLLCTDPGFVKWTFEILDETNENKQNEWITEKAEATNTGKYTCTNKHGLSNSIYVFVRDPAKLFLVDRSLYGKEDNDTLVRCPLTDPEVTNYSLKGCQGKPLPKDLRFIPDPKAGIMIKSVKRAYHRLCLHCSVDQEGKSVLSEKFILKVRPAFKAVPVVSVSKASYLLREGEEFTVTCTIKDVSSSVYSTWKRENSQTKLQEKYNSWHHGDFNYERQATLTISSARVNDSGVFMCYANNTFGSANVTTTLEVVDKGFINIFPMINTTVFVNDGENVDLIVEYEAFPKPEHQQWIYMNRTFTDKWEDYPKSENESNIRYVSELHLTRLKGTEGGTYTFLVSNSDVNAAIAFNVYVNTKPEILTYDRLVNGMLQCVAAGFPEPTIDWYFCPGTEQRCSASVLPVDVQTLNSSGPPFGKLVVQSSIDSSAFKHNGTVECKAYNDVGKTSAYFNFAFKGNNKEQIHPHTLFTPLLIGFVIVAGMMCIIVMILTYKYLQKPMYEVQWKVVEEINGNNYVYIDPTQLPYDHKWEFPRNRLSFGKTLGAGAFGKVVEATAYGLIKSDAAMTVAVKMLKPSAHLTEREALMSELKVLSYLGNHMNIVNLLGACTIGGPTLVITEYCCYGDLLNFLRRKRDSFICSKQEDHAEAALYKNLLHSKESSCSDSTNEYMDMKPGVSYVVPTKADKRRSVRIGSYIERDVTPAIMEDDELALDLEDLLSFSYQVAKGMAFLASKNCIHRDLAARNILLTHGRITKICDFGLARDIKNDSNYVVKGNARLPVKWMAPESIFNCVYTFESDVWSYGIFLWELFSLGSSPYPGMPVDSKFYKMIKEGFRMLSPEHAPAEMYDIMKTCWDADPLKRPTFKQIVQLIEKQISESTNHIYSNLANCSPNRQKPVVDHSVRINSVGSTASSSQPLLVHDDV
Chain of HER4 (Q15303 26-1308): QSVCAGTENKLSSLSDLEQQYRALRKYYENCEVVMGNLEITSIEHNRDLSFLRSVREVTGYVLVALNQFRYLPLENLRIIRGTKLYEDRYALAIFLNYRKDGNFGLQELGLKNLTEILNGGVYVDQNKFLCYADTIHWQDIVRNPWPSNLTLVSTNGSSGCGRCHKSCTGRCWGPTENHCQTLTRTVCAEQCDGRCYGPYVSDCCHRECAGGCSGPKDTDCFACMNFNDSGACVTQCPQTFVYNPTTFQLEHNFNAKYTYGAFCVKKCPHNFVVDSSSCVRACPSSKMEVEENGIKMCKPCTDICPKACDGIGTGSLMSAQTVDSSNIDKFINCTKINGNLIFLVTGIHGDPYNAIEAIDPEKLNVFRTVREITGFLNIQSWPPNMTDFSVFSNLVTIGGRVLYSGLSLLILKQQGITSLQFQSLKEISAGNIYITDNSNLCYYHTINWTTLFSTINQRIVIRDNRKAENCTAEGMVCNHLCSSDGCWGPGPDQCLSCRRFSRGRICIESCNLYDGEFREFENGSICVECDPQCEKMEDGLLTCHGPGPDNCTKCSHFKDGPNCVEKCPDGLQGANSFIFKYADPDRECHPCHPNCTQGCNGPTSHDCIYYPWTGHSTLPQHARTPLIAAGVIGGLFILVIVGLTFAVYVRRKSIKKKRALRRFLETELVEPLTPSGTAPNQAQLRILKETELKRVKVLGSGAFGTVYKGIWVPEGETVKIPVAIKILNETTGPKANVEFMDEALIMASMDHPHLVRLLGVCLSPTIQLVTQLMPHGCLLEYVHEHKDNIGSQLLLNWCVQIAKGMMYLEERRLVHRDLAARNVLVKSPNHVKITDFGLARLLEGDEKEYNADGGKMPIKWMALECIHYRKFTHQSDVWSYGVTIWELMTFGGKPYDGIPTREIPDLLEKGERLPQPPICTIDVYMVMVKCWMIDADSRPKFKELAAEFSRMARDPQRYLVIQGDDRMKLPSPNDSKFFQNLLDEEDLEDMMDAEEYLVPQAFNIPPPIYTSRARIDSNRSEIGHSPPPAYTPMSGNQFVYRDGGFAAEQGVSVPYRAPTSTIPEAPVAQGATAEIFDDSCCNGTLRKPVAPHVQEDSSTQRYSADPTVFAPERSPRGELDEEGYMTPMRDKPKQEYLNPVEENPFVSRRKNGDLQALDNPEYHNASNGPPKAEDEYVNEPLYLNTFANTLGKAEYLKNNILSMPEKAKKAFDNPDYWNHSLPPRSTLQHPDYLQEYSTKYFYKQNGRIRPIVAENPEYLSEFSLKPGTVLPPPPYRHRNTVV

Row | Compound | % Inhibition Against SRC Family Kinases: FYN (FYN [1]) [%] | IC50 (HCK) [µM] | IC50 (FYN [2]) [µM] | Kd (BRAF [3]) [µM] | Kd (MEK6) [µM] | Kd (MEK7) [µM] | IC50 (BRAF [4]) [µM] | IC50 (HER4) [µM] | IC50 (KDR/VEGFR2) [µM] | IC50 (RET) [µM] | IC50 (c-KIT) [µM]
1 | Nc1ncnc2c1c(-c1ccc(Oc3ccccc3)cc1)nn2C[C@H]1SSC[C@@H]1O [43 B.] | 77 | 0.1 to 0.999 | 0.005 to 0.099 | – | – | – | – | – | – | – | –
2 | Nc1ncnc2c1c(-c1ccc(Oc3ccccc3)cc1)nn2C[C@@H]1SSC[C@@H]1O [46 A.] | – | – | – | 1 to 10 | 1 to 10 | 1 to 10 | 1 to 10 | 1 to 10 | 1 to 10 | 0.1 to 0.999 | 1 to 10
3 | Nc1ncnc2c1c(-c1ccc(Oc3ccccc3)cc1)nn2C[C@H]1SSC[C@H]1O [46 B.] | – | – | 0.005 to 0.099 | 1 to 10 | 1 to 10 | 1 to 10 | 1 to 10 | 0.005 to 0.099 | 1 to 10 | 1 to 10 | 1 to 10
